Reference: ChEMBL document CHEMBL1795238, “Structure-brain exposure relationships in rat and human using a novel data set of unbound drug concentrations in brain interstitial and cerebrospinal fluids” (J Med Chem, 2009)

Experiments:
clinical = conditions: human, CSF and plasma
Description: Unbound CSF to plasma concentration ratio in human

[1] = Sprague-Dawley, rat, iv, 2 (umol/kg)/hr, 4 h
Brain = conditions: rat, in vivo, iv, 4 h
in vivo [2] = conditions: Sprague-Dawley, rat, csf, iv, 2 (umol/kg)/hr
[3] = Sprague-Dawley, rat, brain, iv, 2 (umol/kg)/hr, 4 h
in vitro = conditions: Sprague-Dawley, rat, plasma, iv, 2 (umol/kg)/hr
Plasma [4] = conditions: rat, iv, 4 h
Plasma [5] = conditions: rat, iv, 4 h, BLD = below limit of detection
in vivo [6] = conditions: Sprague-Dawley, rat, brain and plasma, iv, 2 (umol/kg)/hr
in vivo [7] = conditions: Sprague-Dawley, rat, brain, iv, 2 (umol/kg)/hr

Kp uu (clinical)	K(p,uu,brain) [1]	Vdu (Brain)	Kp uu at 4 h (in vivo [2])	BPR [3]	fraction unbound at 4 h (in vitro)	Cp(f) (Plasma [4])	K(p,uu,CSF) (Plasma [5])	Kp uu at 4 h (in vivo [6])	Kp at 4 h (in vivo [7])	SMILES
0.17	ND(Unstable)	ND(Unstable)	0.007	ND(Unstable)	0.59	2800 nM				CO/N=C(\C(=O)N[C@@H]1C(=O)N2C(C(=O)O)=C(COC(C)=O)CS[C@H]12)c1csc(N)n1 [CEFOTAXIME]
		769 mL			0.05	16 nM	BLD	0.007	0.28	CC(=O)O[C@H]1C(=O)[C@@]2(C)[C@H]([C@H](OC(=O)c3ccccc3)[C@]3(O)C[C@H](OC(=O)[C@H](O)[C@@H](NC(=O)c4ccccc4)c4ccccc4)C(C)=C1C3(C)C)[C@]1(OC(C)=O)CO[C@@H]1C[C@@H]2O [PACLITAXEL]
